Results on two compounds are retold here after patent US20140050779A1, “[…]-2 INHIBITORS AND USES THEREOF” (SINGAPORE HEALTH SERVICES PTE. LTD., priority 2011, published 2014).

“Also recorded” adds a separate entry of the source.

Test [1] deals with TGase 2 (TGM-2) transcript. As to the kind of experiment: qPCR of TGases mRNA in mouse scleral fibroblasts after muscarinic agents. In kind it is cell-based. The conditions noted are these: 0.01-10 μM for 5 days, qPCR normalized to GAPDH. How it is done:
(§1) P2 cultured mouse scleral fibroblasts were treated with atropine or carbachol at different concentrations of 0.01 μM, 0.1 μM, […], 5 μM and 10 μM for 5 days. Following 5 days of treatment, the total RNA was extracted from these cells and TGases transcript level was quantified via qPCR analysis. Height of bars show the means of three independent samples and error bars represent standard deviation. Values are normalized against GAPDH house keeping genes.
Murine scleral derived fibroblasts were cultured to passage 2 and treated to exogenous atropine or carbachol at 0.01 μM, 0.1 μM, 1 μM, 5 μM and 10 μM for 5 days. Following 5 days of treatment, the total RNA was extracted from these cells and RT-qPCR performed to determine transcript levels of TGM-2. The levels were normalized to GAPDH internal control. […] Height of bars or symbols represents mean and error bars SD. *: p<0.05 and **: p<0.001.
All cells used in examples described herein were between passages 2-4. Passaged cells were plated at a concentration of 2×10^5/mL into 6 well plates containing DMEM with 10% FBS. The cells were seen to attach to the bottom of the culture wells after 4 hours. […] The supernatant was poured into a new eppendorf tube and cell concentrations were determined using the Dc Protein assay Kit (Bio-Rad, MA). […] Cell lysate was collected for relative quantitative (q) PCR and protein analysis at day 5. […]

Test [2] deals with mouse eyes treated with −15D spectacle lens. As to the kind of experiment: spectacle lens-induced myopia in mice, axial length and refractive error. It is filed as in vivo. Particulars: lens with 0.1% drug; for axial length: vs lens treated eyes; for refractive error: infrared photorefractor. How it is done:
Topical applications were administered to both eyes at the same time each day (approximately 9:00 AM) commencing on the 12th day (initiation of spectacle lens treatment). A compatible drug level was determined prior to the in vivo use in a tissue culture study with mouse scleral fibroblasts. […] This treatment schedule continued for four weeks starting on post-natal day 12 continued until post-natal day 42. All measurements were taken at post-natal day 42, the equivalent of 4 weeks of spectacle lens wear.
Each eye was refracted every week to measure the refractive error using automated infrared photorefraction as described in Barathi, V. A., Beuerman, R. W., Schaeffel, F., 2009a, “Effects of unilateral topical atropine on binocular pupil responses and eye growth in mice”, Vision Res 49, 383-387. By using Optical Low Coherence Interferometry (OLCI, AC Master, Carl-Zeiss), the axial length of the eye was measured in-vivo as described in Yin G C, Gentle A, McBrien N A, “Muscarinic antagonist control of myopia: a molecular search for the M1 receptor in chick”, Mol. Vis. 2004; 13(10):787-93 and Barathi, V. A., Boopathi, V. G., Yap, E. P., Beuerman, R. W., 2008, “Two models of experimental myopia in the mouse”, Vision Res 48, 904-916. […] Differences of refractive power and axial length between eyes were calculated. Independent t-tests were used to compare experimental and control eyes in wild type and TGM2-deleted or M1-M5 mutant mice.
Right eyes were experimental and left eyes served as contra-lateral control. In vivo axial length was measured at 2 weeks and 4 weeks after treatment. […] Automated infrared photorefractor was used to measure the refractive error measurements.

Test [3] deals with TG-5. As to the kind of experiment: Western blot of TG proteins in human scleral fibroblasts after muscarinic agents. It is filed as cell-based. Particulars: 0.01-10 μM for 5 days.
For test [4], the system named is TGase 1 transcript. As to the kind of experiment: qPCR of TGases mRNA in mouse scleral fibroblasts after muscarinic agents. It is filed as cell-based. The conditions noted are these: 0.01-10 μM for 5 days, qPCR normalized to GAPDH. How it is done: as §1
(§2) All cells used in examples described herein were between passages 2-4. Passaged cells were plated at a concentration of 2×10^5/mL into 6 well plates containing DMEM with 10% FBS. The cells were seen to attach to the bottom of the culture wells after 4 hours. Old media was removed from wells and 1 mL of drug was added with fresh full medium and incubated at 37° C. Fresh drugs were replaced daily consecutively for the next 5 days to avoid oxidation. The drugs/media was removed and wells were washed twice with 1×PBS. 200 μl of RIPA lysis buffer was added per well and incubated for 5 minutes and cells were scrapped into an eppendorf tube. The cells were stored at −20° C. until sonication. The cells were sonicated on ice thrice at 20% output power for 5 seconds each time and rested 1 minute in between each turn. Cell debris was spun down at 12000 rpm for 20 minutes. The supernatant was poured into a new eppendorf tube and cell concentrations were determined using the Dc Protein assay Kit (Bio-Rad, MA). Passaged cells were plated at a concentration of 1×10^5 into 6 well plates containing DMEM with 10% FBS. The cells were seen to attach to the bottom of the culture wells after 4 hours. Freshly prepared muscarinic agents' at base line, 0.1, 1, 10 and 100 μM concentrations were added for 5 days (Table 2). The culture medium was removed and fresh medium containing the same muscarinic drug added every day to avoid drug changes such as atropine oxidation. Cell lysate was collected for relative quantitative (q) PCR and protein analysis at day 5.
(§3) Total RNA was isolated from cultured human and mouse scleral fibroblasts using TRIzol reagent (Invitrogen life technologies, USA) in accordance with the manufacturer's instructions Chomczynski P, Sacchi N., “Single-step method of RNA isolation by acid guanidinium thiocyanate-phenol-chloroform extraction”, Anal. Biochem. 1987 April; 162(1):156-9. Genomic DNA was removed by digestion with DNase I (Amp Grade; Invitrogen-Gibco) for 15 minutes at room temperature. One microgram of total RNA was reverse-transcribed with random hexamers by using a first-strand cDNA synthesis kit (Invitrogen-Gibco). qPCR was performed in a 384-well plate format on an Roche 480 LightCycler Detection System (Roche Applied Science, Mannheim, Germany) with efficiency corrected software 4.0. PCR was performed using 50 ng of cDNA of each sample. The pre-validated hydrolysis probes for TG-2 were from human and mouse universal probe library (Roche, CA) and the primers for human and mouse are shown in Table 3. GAPDH Internal Standard (Roche) was used as an endogenous control. To standardize and evaluate scleral gene expression, aliquots of the same cDNA (50 ng) preparation were used as templates in all PCR reactions. The data was analyzed by comparative CT (MCT) method as previously described in Brink N, Szamel M, Young A R, Wittern K P, Bergemann J., “Comparative quantification of IL-1, IL-10, Il-10r, TNF and IL-7 mRNA levels in UV-irradiated human skin in vivo”, Inflamm Res. 2000 June; 49(6):290-6.
Background: Quantitative PCR measures a nucleic acid by following its amplification.

Test [5] relates to TGase 5 transcript. The description is as above. In kind it is cell-based. Particulars: 0.01-10 μM for 5 days, qPCR normalized to GAPDH. How it is done:
as §1, §2, §3

Test [6] concerns TGase-3 transcript. The description is as above. In kind it is cell-based. Particulars: 0.01-10 μM for 5 days, qPCR normalized to GAPDH. How it is done:
as §1, §2, §3

In test [7] the test system is TG-1. As to the kind of experiment: Western blot of TG proteins in human scleral fibroblasts after muscarinic agents. It is filed as cell-based. The conditions noted are these: 0.01-10 μM for 5 days.

In the case of `CN1[C@@H]2CC[C@H]1C[C@@H](OC(=O)C(CO)c1ccccc1)C2` (some centres unmarked) [atropine], the “TGase 2 (TGM-2) transcript level” value in test [1] is reported as “reduction; also recorded: down regulated”. Besides, in test [2] (2 weeks and 4 weeks), the axial length result is on record as “significantly reduced”. Moreover, in test [2], the refractive error entry is reported as “shifted from myopic to hyperoic”. In test [3], the TG-5 protein level result was “reduced”. In addition, the “TGase 1 transcript level” value in test [4] is “down regulated”. In addition, the “TGase 5 transcript level” value in test [5] is given as “down regulated”. Besides, in test [6], the TGase-3 transcript level result is “upregulated”. In test [7], the TG-1 protein level entry is “reduced”.
`C[C@@H]1OC(=O)[C@H]2C[C@H]3CCCC[C@@H]3[C@@H](/C=C/[C@H]3CCC[C@H](C)N3C)[C@@H]12` [himbacine]: in test [2] (2 weeks and 4 weeks), the “reduction in the mouse myopia progression, among all the drugs” value is listed as “most significant amount of reduction” and the axial length result is reported as “significantly reduced”. In test [2], the refractive error result is given as “shifted from myopic to hyperoic”.
